Measured values: patent US12037317B2, “Synthesis of 3-hydroxybutyryl 3-hydroxybutyrate and related compounds” (Buck Institute for Research on Aging, priority 2018, dated 2024)
“Also recorded” adds a separate entry of the source.

Columns and labels:
[1] = humans on a normal diet, ingested orally; cited from earlier work
[2] = ingested as a drink, compared to equivalent calories as carbohydrate; cited from earlier work
[3] = tested on: T1, histone deacetylases (HDAC); test: in vitro HDAC assay (Fluor de Lys Green kit, Enzo); type: biochemical; conditions: sodium salt
T1 construct: other: sodium salt; Fluor de Lys Green kit; same assay as S-BHB
Experimental: (§1) The activity of S-BHB and R-BHB enantiomers in inhibiting histone deacetylases was tested. This is an in vitro HDAC assay performed using the sodium salt of S-BHB and R-BHB with a commercial assay kit, Fluor de Lys Green from Enzo.

[4] = tested on: histone deacetylases (HDAC); test: in vitro HDAC assay (Fluor de Lys Green kit, Enzo); type: biochemical; conditions: comparison with a different, previously published assay
Experimental: as §1

[5] = disclosed in co-owned U.S. Provisional Application No. 62/535,754; cited from earlier work

Row | SMILES | level of ketosis [1] [µM] | performance in cycling time-trial test [2] | inhibition of deacetylase activity (in words) [3] | maximum inhibition of HDAC activity ([3]; same assay as S-BHB) | potency for HDAC inhibition relative to published potency of R-BHB in a different assay (Shimazu et al., Science 2013) [4] [fold] | IC50 ([3]; Fluor de Lys Green kit, read-out: HDAC inhibition IC50) [mM] | serum half-life compared to the R-enantiomer [5]
1 | C[C@@H](O)CCOC(=O)C[C@@H](C)O [R-3-hydroxybutyryl R-3-hydroxybutyrate, (R) 3-hydroxybutyryl (R) 3-hydroxy butyrate] | ~6000 | improved performance | – | – | – | – | –
2 | C[C@@H](O)CC(=O)O [R-BHB, R-β-Hydroxybutyrate, reference compound] | – | – | partial inhibition | about 50% | – | – | –
3 | C[C@H](O)CC(=O)O [S-BHB, (S)-β-hydroxybutyric acid] | – | – | even more effective than R-BHB; also recorded: dose-dependent inhibition | – | ≤ 2 | 7.3 | substantially improved
